Experimental data: PMC10831936 (iScience, 2024)

How the values were obtained:
[1] = target: T1, ERBB4 (Homo sapiens, UniProt Q15303); test: Split TEV firefly luciferase assay, ERBB4; assay type: cell-based; details: PC12 cells; constant EGF-like domain 10 ng/mL; luciferase readout
Description: (§1) 50,000 PC12 cells were seeded per 96-well onto poly-L-lysin (PLL)-coated plates and transfected the following day (day in vitro 1, DIV1) with assay plasmids using Lipofectamine 3000 (Thermo Fisher Scientific). For split TEV assays, plasmids (pcDNA3 or pTag4C backbone) encoding receptor-NTEV-tcs-GV, GRB2-SH2-CTEV (for ERBB receptors) or ARBB2-1-383-CTEV (for HTR2A) (all 10 ng/well), and the p10xUAS-luc2 reporter plasmid (10 ng/well) were used. For pathway assays, the receptor plasmids (15 ng/well) and pathway reporter plasmids (15 ng/well) pEGR1p-luc2 for monitoring MAPK signaling, pCRE-CMVmin-luc2 for monitoring cAMP/Ca^2+ signaling, or p6xNFAT-CMVmin-luc2 for Ca^2+ signaling were used. Transient transfections were conducted according to the manufacturer’s instructions. On DIV2, cells were starved in medium containing 1% FCS for 16 h. […] In the case of antagonist assays, compounds were added at increasing doses together with the stimulus. Cells were lysed in 1x passive lysis buffer (Promega) and subjected to a firefly luciferase assay using a self-made substrate for firefly luciferase.[100] Luciferase activity was analyzed in a Mithras LB 940 Multimode Microplate Reader (Berthold Technologies). All assays were run in 96-well plates using six replicates per condition.

[2] = tested on: EGR1p (MAPK signaling), EGFR; test: EGR1p pathway sensor luciferase assay, EGFR; assay type: cell-based, Rattus norvegicus; details: Rattus norvegicus, PC-12; read-out: EGFR downstream MAPK signaling IC50, EGR1p sensor luciferase
Description: as §1

[3] = tested on: EGR1p (ERBB4); test: EGR1p pathway sensor luciferase assay, ERBB4 transfected; assay type: cell-based, Rattus norvegicus; details: Rattus norvegicus, PC-12; PC12 cells; constant EGF-like domain 10 ng/mL; luciferase readout; read-out: ERBB4 downstream MAPK signaling IC50, EGR1p sensor luciferase
Description: as §1

[4] = tested on: cAMP; test: GloSensor cAMP assay in PC12 cells; assay type: cell-based, Rattus norvegicus
[5] = tested on: calcium; test: Fluo-4 AM calcium assay in PC12 cells; assay type: cell-based, Rattus norvegicus; details: stimulation mix
[6] = target: T2, phospho-ERBB4 (Homo sapiens, UniProt Q15303); test: Western blot of p-ERBB4 in T-47D cells; assay type: cell-based; details: compound 1 h, EGFld 10 ng/mL 5 min, read-out: p-ERBB4 IC50, Western blot quantification
T2 construct: T-47D cells, which endogenously express ERBB4; host or cells: T-47D cells
T2 sequence (Q15303 26-1308): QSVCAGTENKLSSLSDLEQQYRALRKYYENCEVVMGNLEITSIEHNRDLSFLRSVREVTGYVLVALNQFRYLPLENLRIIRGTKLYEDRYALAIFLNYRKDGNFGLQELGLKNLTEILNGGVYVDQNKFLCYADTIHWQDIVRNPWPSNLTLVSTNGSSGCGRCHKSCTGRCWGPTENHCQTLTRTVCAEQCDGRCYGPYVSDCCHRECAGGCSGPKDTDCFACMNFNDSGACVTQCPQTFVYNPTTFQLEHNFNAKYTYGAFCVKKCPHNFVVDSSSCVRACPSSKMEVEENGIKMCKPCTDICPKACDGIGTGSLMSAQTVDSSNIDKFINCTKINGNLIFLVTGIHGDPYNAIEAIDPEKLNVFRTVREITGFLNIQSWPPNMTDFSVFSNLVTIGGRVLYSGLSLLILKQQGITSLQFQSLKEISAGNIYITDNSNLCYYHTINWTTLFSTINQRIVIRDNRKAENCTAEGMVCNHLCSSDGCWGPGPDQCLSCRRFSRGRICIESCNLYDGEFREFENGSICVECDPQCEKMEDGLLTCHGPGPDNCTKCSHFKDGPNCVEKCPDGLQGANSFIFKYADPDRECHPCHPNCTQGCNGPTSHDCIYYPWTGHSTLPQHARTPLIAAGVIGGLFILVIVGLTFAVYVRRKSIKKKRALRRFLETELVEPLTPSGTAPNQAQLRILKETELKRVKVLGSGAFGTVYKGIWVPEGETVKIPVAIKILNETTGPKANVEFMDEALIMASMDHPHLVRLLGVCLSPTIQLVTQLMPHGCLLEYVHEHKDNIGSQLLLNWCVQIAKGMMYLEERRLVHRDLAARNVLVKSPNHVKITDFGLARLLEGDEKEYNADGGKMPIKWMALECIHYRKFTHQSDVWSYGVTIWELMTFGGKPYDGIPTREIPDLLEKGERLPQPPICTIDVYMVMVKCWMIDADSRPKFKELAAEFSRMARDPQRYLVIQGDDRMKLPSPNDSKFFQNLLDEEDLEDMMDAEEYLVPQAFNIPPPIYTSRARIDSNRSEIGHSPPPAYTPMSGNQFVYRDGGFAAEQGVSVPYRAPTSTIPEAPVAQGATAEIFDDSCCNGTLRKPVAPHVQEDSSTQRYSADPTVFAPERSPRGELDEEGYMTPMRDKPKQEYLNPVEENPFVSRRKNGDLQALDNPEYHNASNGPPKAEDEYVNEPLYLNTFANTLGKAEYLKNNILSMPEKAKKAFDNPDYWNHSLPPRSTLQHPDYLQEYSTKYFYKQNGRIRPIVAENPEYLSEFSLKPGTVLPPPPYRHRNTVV
Description: (§2) Phosphorylation levels of EGFR were assessed[37] in A549 cells, while phosphorylation levels of ERBB4 were assessed in T-47D cells. Before stimulation experiments were performed, both cell types were starved overnight in 1% FCS and compounds were incubated for 1 h. […] For lysis, cells were washed 1x with PBS and lysed in a Triton X- lysis buffer (1% Triton X-100, 50 mM Tris pH7.5, 150 mM NaCl, 1 mM EGTA) containing the Complete protease inhibitor cocktail (Roche) and PhosSTOP phosphatase inhibitor (Roche). Briefly, cells were lysed and kept on ice for 10 min, sonicated 3x for 10 s at 4°C, and denatured for 10 min at 70°C. The Mini-PROTEAN Tetra Electrophoresis System and Trans-Blot Turbo Botting System (both Bio-Rad) were used for running and blotting protein gels. […] Total EGFR and ERBB4 protein levels were determined using an anti-EGFR antibody (RRID: AB_10920395) (clone A-10, dilution 1:1000, sc-373746, Santa Cruz Biotechnology) and an anti-ERBB4 antibody (RRID: AB_731579) (clone E200, dilution 1:1000, ab32375, Abcam). […] Tubulin levels were determined using an anti-Tubulin antibody (RRID: AB_477579) (dilution 1:2000, No. T 5168, Sigma-Aldrich). For quantification, phosphorylation levels of p-EGFR relative to EGFR as well as p-ERBB4 relative to ERBB4 were calculated using the Lukemiller protocol (http://lukemiller.org/index.php/2010/11/analyzing-gels-and-western-blots-with-image-j/). […]

[7] = tested on: phospho-ERK1/2; test: Western blot of p-ERK1/2 in A549 cells (EGF stimulated); assay type: cell-based; details: Homo sapiens, read-out: p-ERK1/2 IC50 (EGFR), Western blot quantification
Description: as §2

[8] = tested on: phospho-ERK1/2; test: Western blot of p-ERK1/2 in T-47D cells (EGFld stimulated); assay type: cell-based; details: Homo sapiens, T47D, compound 1 h, EGFld 10 ng/mL 5 min, read-out: p-ERK1/2 IC50 (ERBB4), Western blot quantification
Description: as §2

[9] = target: T1, ERBB4; test: ERBBprofiler barcoded split TEV assay, ERBB4; details: ERBB4 UAS (split TEV) IC50, PC12 cells; constant EGF 30 ng/mL, EGFld 10 ng/mL, serotonin 1 μM; 6 h; barcode readout; relative IC50
[10] = target: ERBB2/3 (Homo sapiens, UniProt P04626+P21860); test: ERBBprofiler barcoded split TEV assay, ERBB2/3
Sequence of ERBB2/3 (P04626 23-1255): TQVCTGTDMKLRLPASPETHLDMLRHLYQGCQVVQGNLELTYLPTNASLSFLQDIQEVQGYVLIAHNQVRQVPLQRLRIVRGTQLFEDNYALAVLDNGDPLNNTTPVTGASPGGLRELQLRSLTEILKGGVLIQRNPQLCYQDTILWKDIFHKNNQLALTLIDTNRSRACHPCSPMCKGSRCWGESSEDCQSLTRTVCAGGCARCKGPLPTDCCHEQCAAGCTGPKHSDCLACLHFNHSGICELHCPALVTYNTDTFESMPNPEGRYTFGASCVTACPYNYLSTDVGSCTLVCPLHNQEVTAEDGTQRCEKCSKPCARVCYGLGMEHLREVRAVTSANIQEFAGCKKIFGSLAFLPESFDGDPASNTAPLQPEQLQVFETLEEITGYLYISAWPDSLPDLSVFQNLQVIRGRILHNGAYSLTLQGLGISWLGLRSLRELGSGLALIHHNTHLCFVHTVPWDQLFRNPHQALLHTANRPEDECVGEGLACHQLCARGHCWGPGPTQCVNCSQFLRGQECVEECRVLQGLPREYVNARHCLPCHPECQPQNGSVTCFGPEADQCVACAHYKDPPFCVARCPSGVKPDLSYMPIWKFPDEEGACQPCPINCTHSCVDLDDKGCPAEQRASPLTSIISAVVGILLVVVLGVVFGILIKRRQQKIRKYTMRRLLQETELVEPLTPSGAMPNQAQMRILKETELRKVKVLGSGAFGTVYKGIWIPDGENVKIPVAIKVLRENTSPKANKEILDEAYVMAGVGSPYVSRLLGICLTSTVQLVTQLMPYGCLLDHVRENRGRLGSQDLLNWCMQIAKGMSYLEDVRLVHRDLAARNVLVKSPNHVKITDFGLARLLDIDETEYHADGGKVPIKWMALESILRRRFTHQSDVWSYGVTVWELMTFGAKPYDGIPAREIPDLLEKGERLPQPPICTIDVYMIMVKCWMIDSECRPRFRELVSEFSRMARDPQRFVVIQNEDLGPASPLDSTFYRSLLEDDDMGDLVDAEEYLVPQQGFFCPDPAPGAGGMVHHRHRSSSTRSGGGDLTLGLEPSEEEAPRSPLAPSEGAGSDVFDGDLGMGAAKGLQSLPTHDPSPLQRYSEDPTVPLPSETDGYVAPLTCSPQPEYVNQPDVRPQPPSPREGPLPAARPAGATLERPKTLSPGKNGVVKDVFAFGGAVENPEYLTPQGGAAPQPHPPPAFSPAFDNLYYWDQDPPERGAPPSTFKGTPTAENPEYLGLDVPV
Sequence of ERBB2/3 (P21860 20-1342): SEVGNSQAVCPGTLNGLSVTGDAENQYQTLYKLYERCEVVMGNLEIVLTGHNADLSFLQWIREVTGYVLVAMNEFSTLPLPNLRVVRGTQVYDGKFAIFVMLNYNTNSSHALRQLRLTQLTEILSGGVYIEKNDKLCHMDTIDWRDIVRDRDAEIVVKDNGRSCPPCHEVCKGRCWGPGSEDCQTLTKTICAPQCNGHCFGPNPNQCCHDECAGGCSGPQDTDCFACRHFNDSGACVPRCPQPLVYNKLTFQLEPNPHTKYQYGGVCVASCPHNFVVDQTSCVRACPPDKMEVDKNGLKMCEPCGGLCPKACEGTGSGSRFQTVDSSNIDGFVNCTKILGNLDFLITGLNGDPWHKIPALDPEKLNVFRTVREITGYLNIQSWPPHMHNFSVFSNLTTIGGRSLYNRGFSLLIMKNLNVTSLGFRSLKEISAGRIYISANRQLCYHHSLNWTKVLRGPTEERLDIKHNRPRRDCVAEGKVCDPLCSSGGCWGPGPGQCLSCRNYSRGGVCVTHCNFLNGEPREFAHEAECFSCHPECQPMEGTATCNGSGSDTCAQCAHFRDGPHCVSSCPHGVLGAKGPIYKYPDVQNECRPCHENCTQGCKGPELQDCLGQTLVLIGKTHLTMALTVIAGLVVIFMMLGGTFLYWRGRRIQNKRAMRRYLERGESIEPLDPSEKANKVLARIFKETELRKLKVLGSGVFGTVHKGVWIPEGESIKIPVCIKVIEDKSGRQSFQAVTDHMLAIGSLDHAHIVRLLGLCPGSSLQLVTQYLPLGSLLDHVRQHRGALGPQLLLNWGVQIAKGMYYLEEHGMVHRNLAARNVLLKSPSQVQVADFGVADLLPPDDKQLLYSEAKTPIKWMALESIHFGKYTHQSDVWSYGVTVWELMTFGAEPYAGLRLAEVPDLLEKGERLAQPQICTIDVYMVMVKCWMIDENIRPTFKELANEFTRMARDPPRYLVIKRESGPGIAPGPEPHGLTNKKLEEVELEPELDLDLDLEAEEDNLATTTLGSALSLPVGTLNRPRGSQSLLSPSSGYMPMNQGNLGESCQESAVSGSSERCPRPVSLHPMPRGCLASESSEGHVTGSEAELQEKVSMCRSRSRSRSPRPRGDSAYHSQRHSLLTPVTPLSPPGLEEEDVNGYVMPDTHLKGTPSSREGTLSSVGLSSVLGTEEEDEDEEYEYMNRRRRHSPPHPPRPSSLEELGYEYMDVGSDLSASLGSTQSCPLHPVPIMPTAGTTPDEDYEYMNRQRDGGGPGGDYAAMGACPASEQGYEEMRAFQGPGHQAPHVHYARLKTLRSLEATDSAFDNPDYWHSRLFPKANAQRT

[11] = tested on: ERBB4 EGR1p; test: ERBBprofiler barcoded EGR1p pathway sensor, ERBB4 co-transfected; details: Rattus norvegicus, PC-12, 6 h, read-out: ERBB4 EGR1p IC50
[12] = tested on: HTR2A EGR1p; test: ERBBprofiler barcoded EGR1p pathway sensor, HTR2A co-transfected; details: Rattus norvegicus, PC-12, 6 h, read-out: HTR2A EGR1p IC50
[13] = tested on: ERBB2/3 EGR1p; test: ERBBprofiler barcoded EGR1p pathway sensor, ERBB2/3 co-transfected; details: Rattus norvegicus, PC-12, 6 h, read-out: ERBB2/3 EGR1p IC50

T1 sequence (Q15303 26-1308): as the sequence (Q15303 26-1308) above

IC50 [1]	IC50 [2]	IC50 [3]	IC50 [6]	IC50 [7]	IC50 [8]	IC50 [9]	IC50 [10]	IC50 [11]	IC50 [12]	IC50 [13]	EC50 ([4]; Rattus norvegicus, PC-12, 0.25 h, constant stimulation mix, 15 min, cAMP increase)	Structure (SMILES)	effect on cAMP levels (GloSensor) [4]	effect on calcium levels (Fluo-4 AM) [5]	compound concentration resulting in elevated cAMP (GloSensor) ([4]; stimulation mix)
258 nM	94 nM	378 nM	100 nM	91 nM	147 nM	654 nM	202 nM	47 nM	32 nM	30 nM	–	COc1cc2ncnc(Nc3cccc(Cl)c3)c2cc1OC [AG1478, AG-1478 (Tyrphostin AG-1478)]	did not cause any increase	did not cause any increase	–
324 nM	450 nM	284 nM	344 nM	6540 nM	4990 nM	117 nM	92 nM	113 nM	160 nM	120 nM	1920 nM	CCOc1cc2ncc(C#N)c(Nc3ccc(OCc4ccccn4)c(Cl)c3)c2cc1NC(=O)/C=C/[C@H]1CCCN1C [Pyrotinib]	–	but not calcium levels	≥ 3 µM
